# Results from patent US11369579B2 (SyneuRx International (Taiwan) Corp., priority 2016, dated 2022).
# Entries after “also recorded” stand apart in the source; their conditions may differ.
# Tests used:
# [1] = Stability test under high humidity condition (>90% RH, 5 days), analyzed by XRPD; conditions: 500 mg
# [2] = Slurry conversion of polymorphic forms / thermodynamic stability comparison
SMILES,Change of XRPD pattern [1],Thermodynamic stability among forms of sodium benzoate [2]
O=C([O-])c1ccccc1.[Na+] [sodium benzoate from Formosa Laboratories],significant changes; also recorded: changes in XRPD,less thermodynamically stable
"O=C([O-])c1ccccc1.[Na+] [sodium benzoate from Merck, sodium benzoate]",significant changes; also recorded: changes in XRPD,less thermodynamically stable
